Experimental data published in patent publication US20130040979A1, “CCR1 INHIBITORS USEFUL FOR THE TREAMENT OF MULTIPLE MYELOMA AND OTHER DISORDERS” (Millennium Pharmaceuticals, Inc., priority 2007, published 2013).

How the values were obtained:
Format in all cases: cell-based, human
[1] = tested on: osteoclast activity (bone resorption); assay: Pit formation assay (osteoclast bone resorption on dentin slices); conditions: 10 nM, 3 weeks
Protocol: Osteoclast activity was assayed by bone resorption enumerating resorption pits. PBMCs were cultured (0.5×10^6 cells/well) on dentin slices (Immunodiagnostic Systems, Boldon, United Kingdom) in 96-well plates as per the manufacturer's guidelines, and then stimulated with RANKL and M-CSF (50 ng/mL); Compound 51 was added as indicated in FIG. 2. After 3 weeks, adherent cells were scraped off gently with 0.1% Triton. Bone slices were washed in distilled water and stained with 1% toluidine solution. Resorption pits were then quantified by light microscopy using the public domain National Institutes of Health (NIH) Image J software version 1.36b. Each pit area assay was performed at least 3 times with PBMCs from different donors.

[2] = tested on: multiple myeloma cells co-cultured with osteoclasts; assay: Long-term co-culture of osteoclasts and multiple myeloma cells
From the text: MM primary cells: Patient tumor cells were isolated as described in Kiziltepe et al., Blood 110:709-718 (2007). Following appropriate informed consent, obtained in accordance with the Declaration of Helsinki and with approval by the Institutional Review Board of the Dana-Farber Cancer Institute (Boston, Mass.), MM patient cells were separated from bone marrow (BM) samples by antibody-mediated positive selection using anti-CD138 magnetic activated cell separation microbeads (Miltenyi Biotech, Gladbach, Germany).
(§1) Co-culture experiments: Osteoclasts were harvested with cell dissociation buffer (Invitrogen, Carlsbad, Calif.) and seeded in 96-well or 24-well plates (approximately 1.5−3×10^4 cells/cm^2). After washing, multiple myeloma cells were added to the wells and incubated with media or with Compound 51 (10 nM) for the specified times at 37° C. For multiple myeloma cell proliferation, DNA synthesis was measured by tritiated thymidine uptake (3H-TdR; Perkin Elmer, Boston, Mass.), pulsing multiple myeloma cells with 3H-TdR (0.5 μCi/well [0.0185 MBq]L) during the last 8 hours of 48-hour cultures. At the end of the culture, cells were harvested onto paper filters with an automatic cell harvester (Cambridge Technology, Cambridge, Mass.) and counted using the LKB Betaplate scintillation counter (Wallac, Gaithersburg, Md.). To assess cell survival, viable multiple myeloma cells were counted by trypan blue staining.
Osteoclasts were plated in a 24-well plate (3×10^4 cells/well) with either INA6 mutliple myeloma cells (5×10^3 cells/well) or primary patient multiple myeloma cells (3×10^5 cells/well) for 5 days using the general method described above.

[3] = tested on: multiple myeloma cell adhesion to osteoclasts; assay: Adhesion assay: multiple myeloma cells to osteoclasts; conditions: 6 hours incubation; independent of CCR1 expression on MM cells
Protocol: (§2) Cell lines: The dexamethasone (Dex)-sensitive (MM.1S) human MM cell line was provided by Dr Steven Rosen (Northwestern University, Chicago, Ill.). The INA6 human IL-6-dependent MM cell line was provided by Dr Renate Burger (University of Kiel, Kiel, Germany) (see Burger et al., J. Hematol. 2:42-53 (2001)) and cultured in the presence of 2.5 ng/mL IL-6 (R&D Systems, Minneapolis, Minn.). The OPM1 myeloma cell line was provided by Dr Lief Bergsagel (Mayo Clinic, Scottsdale, Ariz.), and the U266 cell line was obtained from the American Type Culture Collection (Rockville, Md.). All MM cell lines were cultured in RPMI 1640 media (Sigma Chemical) containing 10% fetal bovine serum (FBS), 2 mM L-glutamine, 100 U/mL penicillin, and 100 μg/mL streptomycin (Gibco, Grand Island, N.Y.).
(§3) Multiple myeloma cell lines were labeled with calcein AM (Invitrogen) according to the manufacturer's instructions and plated in a 96-well plates with OCs, fibronectin (FBN; 20 μg/mL), or media, with or without Compound 51. After 6 hours of incubation, plates were washed and fluorescence of the adherent cells was measured using the Multimode Reader Mithras LB 940 (Berthold Technologies, Wildbad, Germany). […] As also shown in FIG. 3, there were no effects on MM cell adhesion to fibronection (FBN).

[4] = tested on: INA6 cells; assay: Short-term co-culture of osteoclasts and multiple myeloma cells (thymidine uptake); conditions: 48 hours
Protocol: as §1
Osteoclasts were seeded in a 96-well plate at a density of 10^4 cells/well and cocultured with INA6 cells (3×10^4 cells/well) for 48 hours.

[5] = tested on: osteoclasts generated from peripheral blood mononuclear cells (PBMCs); assay: Osteoclast formation and TRAP assay
Protocol: Osteoclast formation. Osteoclasts were generated from peripheral blood mononuclear cells (PBMCs) from healthy volunteers by Ficoll-Paque gradient separation and cultured in 6-well or 96-well plates (0.5×10^6 cells/cm^2). After 2 hours, nonadherent PBMCs were removed, and adherent cells were cultured for 21 days in α-MEM containing 10% FBS and 1% penicillin-streptomycin (Mediatech, Herndon, Va.), as well as 50 ng/mL of macrophage colony-stimulating factor (M-CSF; R&D Systems, Minneapolis, Minn.) and RANKL (PeproTech, Rocky Hill, N.J.).
After 3 weeks, cells were fixed with citrate-acetone solution and stained for tartrate-resistant acid phosphatase (TRAP) using an acid phosphatase leukocyte staining kit (Sigma Chemical) according to the manufacturer's instructions. TRAP^+ OCs containing 3 or more nuclei per cell were enumerated. Each OC formation assay was performed at least 3 times using PBMCs from different donors.

[6] = tested on: MM cell adhesion to fibronectin (FBN); assay: Adhesion assay: multiple myeloma cells to fibronectin; conditions: 6 hours incubation, FBN 20 μg/mL
Protocol: as §2, §3

CC(C)(O)c1ccc2c(c1)C(=CCCN1CC[C@](O)(c3ccc(Cl)cc3)C(C)(C)C1)c1cccnc1CO2 [Compound 51, (4S)-4-(4-chlorophenyl)-1-{3-[7-(1-hydroxy-1-methylethyl)[1]benzoxepino[3,4-b]pyridin-5(11H)-ylidene]propyl}-3,3-dimethylpiperidin-4-ol]
resorptive tracks and pit numbers ([1]; dentin slices): almost complete abrogation
bone resorption area, mean±SD, of total area per slice ([1]; control 8.7%±1.9%, P<0.01): 2.4%±1.2
survival advantage conferred by osteoclasts ([2]; INA6 cells, 5 days co-culture, 10 nM): almost completely abrogated
survival advantage conferred by osteoclasts ([2]; MM1.S cells (data not shown)): same effect was also noted
survival advantage conferred by osteoclasts ([2]; primary MM cells, 5 days co-culture, 10 nM): almost completely abrogated
multiple myeloma cell adhesion to osteoclasts [3]: almost complety inhibited
antiproliferative effect on MM cells alone ([4]; no osteoclasts): only modest antiproliferative effects
reduction of MM cell proliferative response induced by OCs ([4]; INA6 cells co-cultured with osteoclasts, P<0.05): 50%
reduction of osteoclast number compared to control ([5]; 10 nM, 3 weeks, TRAP+ OCs with 3 or more nuclei, p<0.05): 40-60%
dose dependence of decrease in osteoclast number ([5]; doses up to 100 nM): No dose-dependent effect
MM cell adhesion to fibronectin (FBN) [6]: no effects
